The record followed here is PubChem BioAssay (NCI).

Each structure is given as a SMILES string.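 These data come from cells grown in 96-well plates and exposed to compound for 48 hours at five concentrations. GI50 = concentration required for 50% inhibition of growth. TGI: total growth inhibition.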

Some test systems named below: HS 578T breast; UACC-62 melanoma; SF-295 CNS; UACC-257 melanoma; NCI-H460 lung; HT29 colon; RPMI-8226 leukemia; NCI-H522 lung.
Holding throughout (assay): DTP human tumour cell line panel, 48 h

For `Cn1c(=O)c(Oc2ccc(F)cc2F)cc2cnc(N[C@@H]3CCOC3)nc21`, the GI50 with HS 578T breast, with UACC-62 melanoma, with SF-295 CNS, with UACC-257 melanoma, in the experiment on NCI-H460 lung and in the experiment with HT29 colon was above 25 µM in each case. In addition, the GI50 in the experiment with RPMI-8226 leukemia and in the experiment with NCI-H522 lung was above 25 µM throughout. Moreover, the TGI in the experiment on HS 578T breast, with UACC-62 melanoma, with SF-295 CNS, with UACC-257 melanoma, with NCI-H460 lung and with HT29 colon was above 25 µM each time. Moreover, the TGI with RPMI-8226 leukemia and in the experiment on NCI-H522 lung was above 25 µM each time.

Regarding `CS(=O)(=O)c1cccc(Nc2ncc3cc(-c4ccccc4Cl)ccc3n2)c1`, the GI50 was 1.23 µM with HS 578T breast; 1.17 µM in the experiment on UACC-62 melanoma; 1.6 µM in the experiment with SF-295 CNS; 3.24 µM in the experiment on UACC-257 melanoma; 1.22 µM in the experiment on NCI-H460 lung; 1.01 µM in the experiment with HT29 colon. The figures for the GI50 in the experiment on RPMI-8226 leukemia and with NCI-H522 lung were 1.47 µM and 0.773 µM, respectively. Also, the TGI in the experiment with HS 578T breast is 10.3 µM; in the experiment on UACC-62 melanoma it was 5.74 µM; with SF-295 CNS it was above 33.3 µM; in the experiment with UACC-257 melanoma it was 19.3 µM; with NCI-H460 lung, 25.8 µM; in the experiment with HT29 colon it was 19.1 µM. Also, the TGI in the experiment with RPMI-8226 leukemia came out at 21.4 µM; with NCI-H522 lung, 2.78 µM.

For the molecule `O=C1Cc2cc(CCn3cncn3)c(Cl)cc2N1`, the GI50 in the experiment with HS 578T breast is 0.72 µM; in the experiment on UACC-62 melanoma it was 20.7 µM; in the experiment on SF-295 CNS, 37.1 µM; in the experiment on UACC-257 melanoma, 7.14 µM; with NCI-H460 lung, 68.6 µM; with HT29 colon, above 100 µM. Moreover, the GI50 with RPMI-8226 leukemia is above 100 µM; with NCI-H522 lung it was 5.29 µM. Moreover, the TGI with HS 578T breast, in the experiment on UACC-62 melanoma, in the experiment with SF-295 CNS, in the experiment on UACC-257 melanoma, in the experiment on NCI-H460 lung and in the experiment with HT29 colon was above 100 µM in each case. The TGI in the experiment with RPMI-8226 leukemia and in the experiment on NCI-H522 lung was above 100 µM throughout.

Turning to `COc1ccccc1[As]=[As]c1ccccc1OC` (centres undefined), the GI50 in the experiment with HS 578T breast is 0.0378 µM; in the experiment with UACC-62 melanoma, 0.0663 µM; with SF-295 CNS, 0.104 µM; in the experiment with UACC-257 melanoma it was 0.0775 µM; in the experiment on NCI-H460 lung, 0.096 µM; in the experiment on HT29 colon it was 0.0405 µM. The GI50 in the experiment with RPMI-8226 leukemia is 0.0278 µM; in the experiment on NCI-H522 lung, 0.0165 µM. Further, the TGI in the experiment with HS 578T breast was found to be 0.334 µM; in the experiment on UACC-62 melanoma it was 0.224 µM; in the experiment with SF-295 CNS it was 0.264 µM; in the experiment on UACC-257 melanoma, 0.218 µM; in the experiment with NCI-H460 lung it was 0.334 µM; in the experiment on HT29 colon it was 0.174 µM. Moreover, the concentration for total growth inhibition (TGI) with RPMI-8226 leukemia amounted to 0.0832 µM; in the experiment with NCI-H522 lung it was 0.0376 µM.

Turning to `CCC(C)C1=C(O)[N+]2([O-])Oc3ccc(C4=C(O)C(=O)C(c5ccc(O)cc5)=C(O)C4=O)cc3OC2(C(C)CC)C(=O)N1O` (centres undefined), the GI50 in the experiment with HS 578T breast was 7.24 µM; in the experiment with UACC-62 melanoma, 5.68 µM; in the experiment with SF-295 CNS, 13.9 µM; in the experiment on UACC-257 melanoma it was 11.5 µM; in the experiment on NCI-H460 lung it was 4.26 µM; with HT29 colon, 31.4 µM. Moreover, the GI50 is 6.74 µM in the experiment on RPMI-8226 leukemia and 19 µM with NCI-H522 lung. Also, the TGI in the experiment with HS 578T breast is above 100 µM; in the experiment on UACC-62 melanoma, 65.1 µM; with SF-295 CNS it was above 100 µM; in the experiment with UACC-257 melanoma, above 100 µM; with NCI-H460 lung, above 100 µM; with HT29 colon, above 100 µM. The TGI in the experiment on RPMI-8226 leukemia and in the experiment with NCI-H522 lung was above 100 µM each time.

On to `c1ccc(Oc2ccc(Nc3ncc(-c4ccccc4)o3)cc2)cc1`, for which the GI50 in the experiment with HS 578T breast, in the experiment on UACC-62 melanoma, with SF-295 CNS, in the experiment on UACC-257 melanoma, in the experiment with NCI-H460 lung and with HT29 colon was above 25 µM in each case. In addition, the GI50 with RPMI-8226 leukemia and in the experiment on NCI-H522 lung was above 25 µM throughout. The TGI in the experiment on HS 578T breast, with UACC-62 melanoma, with SF-295 CNS, in the experiment with UACC-257 melanoma, in the experiment on NCI-H460 lung and in the experiment on HT29 colon was above 25 µM in each case. The TGI in the experiment on RPMI-8226 leukemia and with NCI-H522 lung was above 25 µM each time.

With `Fc1ccc(-c2nn3ccccc3c2-c2ccncc2)cc1`, the GI50 with HS 578T breast is above 25 µM; with UACC-62 melanoma it was above 18.9 µM; in the experiment on SF-295 CNS it was above 25 µM; in the experiment on UACC-257 melanoma, above 25 µM; in the experiment on NCI-H460 lung it was above 25 µM; with HT29 colon, 14 µM. Also, the figures for the GI50 with RPMI-8226 leukemia and in the experiment on NCI-H522 lung were above 25 µM and above 19.8 µM, respectively. In addition, the TGI in the experiment with HS 578T breast, in the experiment with UACC-62 melanoma, with SF-295 CNS, with UACC-257 melanoma, in the experiment with NCI-H460 lung and with HT29 colon was above 25 µM each time. Also, the TGI with RPMI-8226 leukemia and in the experiment on NCI-H522 lung was above 25 µM throughout.

For `Clc1ccc2c(c1)N(C1CCCN(Cc3ccccc3)C1)c1ccccc1S2` (centres undefined), the GI50 in the experiment with HS 578T breast is 2.12 µM; in the experiment with UACC-62 melanoma, 6.94 µM; in the experiment on SF-295 CNS, 2.44 µM; with UACC-257 melanoma, 18.3 µM; in the experiment on NCI-H460 lung it was 3.17 µM; in the experiment with HT29 colon it was 11.5 µM. Moreover, the GI50 in the experiment with RPMI-8226 leukemia was 3.91 µM; with NCI-H522 lung, 2.13 µM. Besides, the TGI was 6.07 µM with HS 578T breast; above 100 µM in the experiment with UACC-62 melanoma; 6.82 µM with SF-295 CNS; above 100 µM with UACC-257 melanoma; 10.4 µM in the experiment on NCI-H460 lung; above 100 µM in the experiment with HT29 colon. Moreover, the TGI in the experiment with RPMI-8226 leukemia is above 100 µM; in the experiment with NCI-H522 lung it was 6.3 µM.

Turning to `CCN(CC)CCN1c2nc3ccccc3cc2Sc2cc3ccccc3nc21`, the GI50 was 1.73 µM with HS 578T breast; 1.77 µM in the experiment with UACC-62 melanoma; 1.56 µM in the experiment on SF-295 CNS; 2.04 µM in the experiment with UACC-257 melanoma; 1.52 µM in the experiment on NCI-H460 lung; 1.21 µM in the experiment on HT29 colon. In addition, the GI50 in the experiment with RPMI-8226 leukemia is 1 µM; in the experiment on NCI-H522 lung, 1.65 µM. Further, the TGI is 4.61 µM in the experiment on HS 578T breast; 4.37 µM in the experiment on UACC-62 melanoma; 3.45 µM in the experiment on SF-295 CNS; 4.06 µM in the experiment on UACC-257 melanoma; 2.95 µM in the experiment with NCI-H460 lung; 3.06 µM with HT29 colon. For the same molecule, the TGI is 2.97 µM in the experiment on RPMI-8226 leukemia and 4.1 µM in the experiment with NCI-H522 lung.

What is called GI50 is the concentration giving 50% growth inhibition. In general, TGI refers to the concentration at which net growth stops. Higher therefore signals less potent growth arrest.
